Measurements: patent US11286263B2, “Macrocyclic fluorine substituted indole derivatives” (The Broad Institute, Inc., priority 2017, dated 2022)
Like-named read-outs stand apart in the source and are kept apart here.

Key:
AMO-1 = assay: Antiproliferation assay AMO-1 (Assay 7); type: cell-based; conditions: AMO-1 cells, CellTiter-Glo, single determinations, read-out: IC50 Antiproli AMO-1
Summary of the method: (§1)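 Cells plated in treatment plates plus a day 0 reference plate; incubated 72 h at 37 °C; CellTiter-Glo added, 10 min incubation, luminescence read; day 0 plate read at time zero.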

SUDHL5 [1] = assay: Induction of caspase-3/7 activity, SUDHL5 (Assay 4); type: cell-based; conditions: SUDHL5 cells
Summary of the method: (§2)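 DLBCL lines treated with compounds for 3 h at 37° C.; caspase-3/7 activity read by Caspase-Glo 3/7 luminescence. Medium-only background subtracted; EC50 fitted with bottom fixed at 1 and top set to reference compound's maximal induction.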

A2780 = assay: Antiproliferation assay A2780 (Assay 7); type: cell-based; conditions: A2780 cells, CellTiter-Glo, single determinations, read-out: IC50 Antiproli A2780
Summary of the method: as §1

SUDHL5 [2] = assay: Induction of cytotoxicity, SUDHL5 (Assay 6); conditions: read-out: IC50 Cytotox SUDHL5 [M] (median), SUDHL5 cells, 5 h, CellTiter-Glo
BCL-2 = BCL-2 (Homo sapiens (Human), UniProt P10415); assay: Protein-protein interaction assay BCL-2/Bad BH3 peptide (BCL-2 assay), TR-FRET; type: binding; conditions: BCL-2/Bad BH3 peptide TR-FRET; median
BCL-2, sequence (P10415 1-211): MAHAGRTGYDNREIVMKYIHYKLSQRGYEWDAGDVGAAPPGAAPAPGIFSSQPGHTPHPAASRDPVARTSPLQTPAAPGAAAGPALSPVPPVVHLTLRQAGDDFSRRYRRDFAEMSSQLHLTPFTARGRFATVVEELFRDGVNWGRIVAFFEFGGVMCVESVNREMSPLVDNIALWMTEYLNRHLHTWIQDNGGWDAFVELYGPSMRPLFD
Description: Assay 3 Protein-Protein Interaction assay: BCL-2/Bad BH3 Peptide (BCL-2 Assay)
The dose-dependent inhibition by the compounds described in this invention of the interaction between BCL-2 and the BH3 domain of Bad (both human) was determined using a steady state binding competition assay with time-resolved fluorescence energy transfer (TR-FRET) readout. For that purpose BCL-2 (amino acids 1-211, C-terminal fused to a hexahistidine (6× His) tag (SEQ ID 5) and a synthetic Bad BH3-derived peptide of sequence Biotin-PEG2-PEG2-NLWAAQRYGRELRR-Nle-SDEFVDSFKK-amide (SEQ ID 4) served as protein receptor and tracer ligand respectively. The recombinant BCL-2 protein (expressed in E. coli) was purchased from BPS Bioscience (San Diego, Calif., USA). The Bad BH3-derived peptide can be obtained from e.g. Biosyntan (Berlin, Germany).
In the assay 11 different concentrations of each compound (0.1 nM, 0.33 nM, 1.1 nM, 3.8 nM, 13 nM, 44 nM, 0.15 μM, 0.51 μM, 1.7 μM, 5.9 μM and 20 μM) were typically measured as duplicates in the same microtiter plate. For that, 100-fold concentrated DMSO solutions were prepared by serial dilutions (1:3.4) of a 2 mM stock solution in a clear, 384-well microtiter plate (Greiner Bio-One, Frickenhausen, Germany). From there, 50 nl were transferred in a dark test plate (Greiner Bio-One, Frickenhausen, Germany). The assay was initiated by addition of 2 μl of a 2,5-fold concentrated His-BCL-2 solution (usually for a 1 nM end concentration in 5 μl reaction volume) in aqueous assay buffer [50 mM Tris/HCl pH 7, 100 mM sodium chloride (NaCl), 50 mM potassium fluoride (KF), 0.005% Tween-20, 2 mM DTT, 0.1% bovine gamma globulin (BGG)] to the compounds in the assay plate. This was followed by a 10-minute incubation step at 22° C. for pre-equilibration of the putative complex between His-BCL-2 and the compounds. After that, 3 μl of a 1.67-fold concentrated solution (in assay buffer) consisting of Bad BH3-derived peptide (1 nM end concentration) and TR-FRET detection reagents [1.67 nM anti-His-Eu cryptate and 1.67 nM streptavidin-XL665 (both from Cisbio Bioassays, Codolet, France)], were added.
The mixture was incubated in the dark for one hour at 22° C. and then overnight at 4° C. The formation of BCL-2/Bad complexes was determined by measuring the resonance energy transfer of the anti-His-Eu-cryptate antibody to the streptavidin-XL665 present in the reaction. For that purpose, the fluorescence emission at 620 nm and 665 nm after excitation at 330-350 nm was measured in a TR-FRET measuring instrument, for instance a Rubystar or a Pherastar (both from BMG Lab Technologies, Offenburg, Germany) or a Viewlux (Perkin-Elmer). The ratio of the emission at 665 nm and at 622 nm was used as indicator of the amount of BCL-2/Bad complexes present.
The resulting data (ratio) were normalized, taking 0% inhibition as the mean value of control measurements (usually 32 data points) where all reagents were included. In this case 50 nl DMSO were used instead of compounds. A 100% inhibition corresponded to the mean value of control measurements (usually 32 data points) where all reagents except BCL-2 were included. IC50 values were determined by regression analysis based on a 4 parameter equation (minimum, maximum, IC50, Hill; Y=Max+(Min−Max)/(1+(X/IC50)^Hill) using the Screener Software (Genedata).

SUDHL5 [3] = assay: Antiproliferation assay SUDHL5 (Assay 7); type: cell-based; conditions: SUDHL5 cells, CellTiter-Glo, median, read-out: IC50 Antiproli SUDHL5 [M] (median)
Summary of the method: as §1

SUDHL10 [4] = assay: Induction of cytotoxicity, SUDHL10 (Assay 6); conditions: read-out: IC50 Cytotox SUDHL10 [M] (median), SUDHL10 cells, 5 h, CellTiter-Glo
SUDHL10 [5] = assay: Induction of caspase-3/7 activity, SUDHL10 (Assay 4); type: cell-based; conditions: SUDHL10 cells
Summary of the method: as §2

[6] = Homo sapiens, SU-DHL-5, 3 h, Caspase-Glo 3/7, median
[7] = Homo sapiens, SU-DHL10, 3 h, Caspase-Glo 3/7, median

Row | EC50 (SUDHL5 [1]; [6]) [µM] | IC50 (A2780; Homo sapiens, A2780, 72 h) [µM] | IC50 (BCL-2) [µM] | IC50 (SUDHL5 [3]; Homo sapiens, SU-DHL-5, 72 h) [M] | EC50 (SUDHL10 [5]; [7]) [µM] | Compound | IC50 (AMO-1; 72 h) [µM] | IC50 (AMO-1; Homo sapiens, AMO1, 72 h) [µM] | IC50 (SUDHL5 [2]; Homo sapiens, SU-DHL-5, 5 h) [M] | IC50 (SUDHL10 [4]; Homo sapiens, SU-DHL10, 5 h) [M] | EC50 (SUDHL5 [1]; 3 h, Caspase-Glo 3/7, median) [µM] | IC50 (A2780; 72 h) [µM] | IC50 (SUDHL5 [2]) [M] | IC50 (SUDHL5 [3]; 72 h) [M] | IC50 (SUDHL10 [4]) [M] | EC50 (SUDHL10 [5]; 3 h, Caspase-Glo 3/7, median) [µM]
1 | 0.96 | 16.5 | > 20 | 1e-06 | 3.8 | Cc1c2c(nn1C)COCCCCn1c(C(=O)O)c(CCCOc3cccc4c3CCC4)c3ccc(F)c-2c31 (racemic) [Example 19, (rac)-1-(3-((2,3-dihydro-1H-inden-4-yl)oxy)propyl)-13-fluoro-11,12-dimethyl-4,5,6,7,9,11-hexahydropyrazolo[4′,3′:9,10][1]oxa[6]azacycloundecino[8,7,6-hi]indole-2-carboxylic acid] | 4.06 | 2.62 | 1.4e-06 | 2.1e-06 |  |  |  |  |  | 
2 | 1.2 | 9.17 | > 20 | 1.4e-06 | 1.7 | CCc1c2c(nn1C)COCCCCn1c(C(=O)O)c(CCCOc3cccc4c3CCCC4)c3ccc(F)c-2c31 (racemic) [Example 29, (rac)-12-ethyl-13-fluoro-11-methyl-1-(3-((5,6,7,8-tetrahydronaphthalen-1-yl)oxy)propyl)-4,5,6,7,9,11-hexahydropyrazolo[4′,3′:9,10][1]oxa[6]azacycloundecino[8,7,6-hi]indole-2-carboxylic acid] |  | 2.44 | 1.2e-06 | 1.8e-06 |  |  |  |  |  | 
3 | 2.5 | 12.1 | > 20 | 3e-06 | 4.5 | CCc1c2c(nn1C)COCCCCn1c(C(=O)O)c(CCCOc3cc(C)c(Cl)c(C)c3)c3ccc(F)c-2c31 (racemic) [Example 31, (rac)-1-(3-(4-chloro-3,5-dimethylphenoxy)propyl)-12-ethyl-13-fluoro-11-methyl-4,5,6,7,9,11-hexahydropyrazolo[4′,3′:9,10][1]oxa[6]azacycloundecino[8,7,6-hi]indole-2-carboxylic acid] |  | > 33 | 2.9e-06 | 3.6e-06 |  |  |  |  |  | 
4 | 0.8 | 15.2 | > 20 | 8.5e-07 | 2.6 | Cc1nn(C)c2c1-c1c(F)ccc3c(CCCOc4cccc5cc(F)ccc45)c(C(=O)O)n(c13)CCCCOC2 (racemic) [Example 32, (rac)-13-fluoro-1-(3-((6-fluoronaphthalen-1-yl)oxy)propyl)-10,12-dimethyl-4,5,6,7,9,10-hexahydropyrazolo[4′,3′:9,10][1]oxa[6]azacycloundecino[8,7,6-hi]indole-2-carboxylic acid] | 4.27 | 3.98 | 1.1e-06 | 2e-06 |  |  |  |  |  | 
5 | 1.8 | 20.9 | > 20 | 1.7e-06 | 5.9 | Cc1nn(C)c2c1-c1c(F)ccc3c(CCCOc4cccc5c4CCCC5)c(C(=O)O)n(c13)CCCCOC2 (racemic) [Example 34, (rac)-13-fluoro-10,12-dimethyl-1-(3-((5,6,7,8-tetrahydronaphthalen-1-yl)oxy)propyl)-4,5,6,7,9,10-hexahydropyrazolo[4′,3′:9,10][1]oxa[6]azacycloundecino[8,7,6-hi]indole-2-carboxylic acid] |  | 6.92 | 2.6e-06 | 4.2e-06 |  |  |  |  |  | 
6 | 3.5 | 29.5 | > 20 | 3.2e-06 | 12 | Cc1cc(OCCCc2c(C(=O)O)n3c4c(c(F)ccc24)-c2c(C)nn(C)c2COCCCC3)cc(C)c1Cl (racemic) [Example 36, (rac)-1-(3-(4-chloro-3,5-dimethylphenoxy)propyl)-13-fluoro-10,12-dimethyl-4,5,6,7,9,10-hexahydropyrazolo[4′,3′:9,10][1]oxa[6]azacycloundecino[8,7,6-hi]indole-2-carboxylic acid] |  |  | 4.3e-06 | 9e-06 |  |  |  |  |  | 
7 | 1.7 | > 33 | > 20 | 1.6e-06 | 7.2 | CCc1nn(C)c2c1-c1c(F)ccc3c(CCCOc4cccc5ccccc45)c(C(=O)O)n(c13)CCCCOC2 (racemic) [Example 37, (rac)-12-ethyl-13-fluoro-10-methyl-1-(3-(naphthalen-1-yloxy)propyl)-4,5,6,7,9,10-hexahydro-pyrazolo[4′,3′:9,10][1]oxa[6]azacycloundecino[8,7,6-hi]indole-2-carboxylic acid] |  |  | 2.1e-06 | 4.8e-06 |  |  |  |  |  | 
8 | 1.4 | 28.2 | > 20 | 1.9e-06 | 6.4 | CCc1nn(C)c2c1-c1c(F)ccc3c(CCCOc4cccc5c4CCC5)c(C(=O)O)n(c13)CCCCOC2 (racemic) [Example 45, (rac)-1-(3-((2,3-dihydro-1H-inden-4-yl)oxy)propyl)-12-ethyl-13-fluoro-10-methyl-4,5,6,7,9,10-hexahydropyrazolo[4′,3′:9,10][1]oxa[6]azacycloundecino[8,7,6-hi]indole-2-carboxylic acid] |  | 6.45 | 1.9e-06 | 3.4e-06 |  |  |  |  |  | 
9 |  |  | > 20 |  |  | (rac)-1-(3-((2,3-dihydro-1H-inden-4-yl)oxy)propyl)-12-ethyl-13-fluoro-11-methyl-4,5,6,7,9,11-hexahydropyrazolo[4′,3′:9,10][1]oxa[6]azacycloundecino[8,7,6-hi]indole-2-carboxylic acid [Example 30] | 1.69 |  |  |  | 0.87 | 11.2 |  | 1.5e-06 |  | 1.7

Row | Compound | EC50 (SUDHL5 [1]; [6]) [µM] | IC50 (A2780; Homo sapiens, A2780, 72 h) [µM] | IC50 (BCL-2) [µM] | IC50 (SUDHL5 [3]; Homo sapiens, SU-DHL-5, 72 h) [M] | EC50 (SUDHL10 [5]; [7]) [µM] | IC50 (AMO-1; 72 h) [µM] | IC50 (AMO-1; Homo sapiens, AMO1, 72 h) [µM] | IC50 (SUDHL5 [2]; Homo sapiens, SU-DHL-5, 5 h) [M] | IC50 (SUDHL10 [4]; Homo sapiens, SU-DHL10, 5 h) [M] | EC50 (SUDHL5 [1]; 3 h, Caspase-Glo 3/7, median) [µM] | IC50 (A2780; 72 h) [µM] | IC50 (SUDHL5 [2]) [M] | IC50 (SUDHL5 [3]; 72 h) [M] | IC50 (SUDHL10 [4]) [M] | EC50 (SUDHL10 [5]; 3 h, Caspase-Glo 3/7, median) [µM]
10 | Cc1c2c(nn1C)CNCCCCn1c(C(=O)O)c(CCCOc3cccc4ccccc34)c3ccc(F)c-2c31 (single isomer, unassigned; enantiomer 1) [Example 48, 4-fluoro-2,3-dimethyl-7-{3-[(naphthalen-1-yl)oxy]propyl}-10,11,12,13,14,15-hexahydro-2H-pyrazolo[3′,4′:8,9][1,6]diazacycloundecino[10,11,1-hi]indole-8-carboxylic acid (enantiomer 1)] |  |  | > 20 |  |  | 2.86 |  |  |  | 1.2 | 7.17 | 1.3e-06 | 1.4e-06 | 1.9e-06 | 2.1
